Data: patent publication US8192962B2, “Processes for detecting toxic substances” (Daikin Industries, Ltd., priority 2001, dated 2012)

System: Metabolism protein genes
Test: DNA chip mRNA expression in yeast, metabolism protein genes (Table 7)
Type: cell-based, Saccharomyces cerevisiae S288C
How it was run: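 In this screen, yeast in logarithmic growth are challenged for two hours with a toxic substance at a non-lethal inhibitory concentration. Their mRNA, converted to Cy3- or Cy5-labeled cDNA, hybridizes at 65° C. to a chip spanning every yeast gene, and expression is expressed as a ratio to untreated cells.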

CCCCCCCCCCCCOS(=O)(=O)[O-].[Na+] [(18), sodium lauryl sulfate]
The level of expressed mRNA in the presence of chemical substance/The level of expressed mRNA in the absence of chemical substance (yeast gene YKL035W): 1.9
level of expressed mRNA in the presence/in the absence of chemical substance (yeast gene YKL060C): 1.7
The level of expressed mRNA in the presence of chemical substance/The level of expressed mRNA in the absence of chemical substance (yeast gene YKL091C): 2.0
The level of expressed mRNA in the presence of chemical substance/The level of expressed mRNA in the absence of chemical substance (yeast gene YKL104C): 1.1
level of expressed mRNA in the presence/in the absence of chemical substance (yeast gene YKL148C): 1.0
The level of expressed mRNA in the presence of chemical substance/The level of expressed mRNA in the absence of chemical substance (yeast gene YKL152C): 1.7
level of expressed mRNA in the presence/in the absence of chemical substance (yeast gene YKL157W): 1.5
The level of expressed mRNA in the presence of chemical substance/The level of expressed mRNA in the absence of chemical substance (yeast gene YKL213C): 1.6
The level of expressed mRNA in the presence of chemical substance/The level of expressed mRNA in the absence of chemical substance (yeast gene YKL215C): 0.9
The level of expressed mRNA in the presence of chemical substance/The level of expressed mRNA in the absence of chemical substance (yeast gene YKR009C): 2.5
level of expressed mRNA in the presence/in the absence of chemical substance (yeast gene YKR034W): 1.0
The level of expressed mRNA in the presence of chemical substance/The level of expressed mRNA in the absence of chemical substance (yeast gene YKR039W): 1.1
The level of expressed mRNA in the presence of chemical substance/The level of expressed mRNA in the absence of chemical substance (yeast gene YLL058W): 1.3
level of expressed mRNA in the presence/in the absence of chemical substance (yeast gene YLR006C): 1.0
level of expressed mRNA in the presence/in the absence of chemical substance (yeast gene YLR044C): 0.9
level of expressed mRNA in the presence/in the absence of chemical substance (yeast gene YLR056W): 1.1
level of expressed mRNA in the presence/in the absence of chemical substance (yeast gene YLR058C): 0.8
level of expressed mRNA in the presence/in the absence of chemical substance (yeast gene YLR081W): 0.9
level of expressed mRNA in the presence/in the absence of chemical substance (yeast gene YLR089C): 1.3
The level of expressed mRNA in the presence of chemical substance/The level of expressed mRNA in the absence of chemical substance (yeast gene YLR180W): 0.7
The level of expressed mRNA in the presence of chemical substance/The level of expressed mRNA in the absence of chemical substance (yeast gene YLR273C): 1.0
level of expressed mRNA in the presence/in the absence of chemical substance (yeast gene YLR284C): 8.1
The level of expressed mRNA in the presence of chemical substance/The level of expressed mRNA in the absence of chemical substance (yeast gene YLR299W): 1.4
The level of expressed mRNA in the presence of chemical substance/The level of expressed mRNA in the absence of chemical substance (yeast gene YLR300W): 0.5
level of expressed mRNA in the presence/in the absence of chemical substance (yeast gene YLR304C): 0.7
The level of expressed mRNA in the presence of chemical substance/The level of expressed mRNA in the absence of chemical substance (yeast gene YLR307W): 1.0
The level of expressed mRNA in the presence of chemical substance/The level of expressed mRNA in the absence of chemical substance (yeast gene YLR348C): 1.0
level of expressed mRNA in the presence/in the absence of chemical substance (yeast gene YLR354C): 1.5
level of expressed mRNA in the presence/in the absence of chemical substance (yeast gene YLR372W): 0.6
level of expressed mRNA in the presence/in the absence of chemical substance (yeast gene YML022W): 0.7
The level of expressed mRNA in the presence of chemical substance/The level of expressed mRNA in the absence of chemical substance (yeast gene YML054C): 1.6
The level of expressed mRNA in the presence of chemical substance/The level of expressed mRNA in the absence of chemical substance (yeast gene YML070W): 1.3
The level of expressed mRNA in the presence of chemical substance/The level of expressed mRNA in the absence of chemical substance (yeast gene YML100W): 1.5
The level of expressed mRNA in the presence of chemical substance/The level of expressed mRNA in the absence of chemical substance (yeast gene YMR008C): 1.9
level of expressed mRNA in the presence/in the absence of chemical substance (yeast gene YMR011W): 1.6
level of expressed mRNA in the presence/in the absence of chemical substance (yeast gene YMR015C): 1.0
The level of expressed mRNA in the presence of chemical substance/The level of expressed mRNA in the absence of chemical substance (yeast gene YMR020W): 2.2
The level of expressed mRNA in the presence of chemical substance/The level of expressed mRNA in the absence of chemical substance (yeast gene YMR081C): 3.0
level of expressed mRNA in the presence/in the absence of chemical substance (yeast gene YMR083W): 1.1
The level of expressed mRNA in the presence of chemical substance/The level of expressed mRNA in the absence of chemical substance (yeast gene YMR105C): 2.6
The level of expressed mRNA in the presence of chemical substance/The level of expressed mRNA in the absence of chemical substance (yeast gene YMR189W): 0.8
level of expressed mRNA in the presence/in the absence of chemical substance (yeast gene YMR205C): 0.5
level of expressed mRNA in the presence/in the absence of chemical substance (yeast gene YMR261C): 1.1
The level of expressed mRNA in the presence of chemical substance/The level of expressed mRNA in the absence of chemical substance (yeast gene YMR271C): 2.2
The level of expressed mRNA in the presence of chemical substance/The level of expressed mRNA in the absence of chemical substance (yeast gene YMR296C): 0.7
level of expressed mRNA in the presence/in the absence of chemical substance (yeast gene YMR323W): 0.6
The level of expressed mRNA in the presence of chemical substance/The level of expressed mRNA in the absence of chemical substance (yeast gene YNL012W): 1.5
level of expressed mRNA in the presence/in the absence of chemical substance (yeast gene YNL025C): 1.3
The level of expressed mRNA in the presence of chemical substance/The level of expressed mRNA in the absence of chemical substance (yeast gene YNL045W): 1.1
The level of expressed mRNA in the presence of chemical substance/The level of expressed mRNA in the absence of chemical substance (yeast gene YNL104C): 0.9
The level of expressed mRNA in the presence of chemical substance/The level of expressed mRNA in the absence of chemical substance (yeast gene YNL106C): 0.9
The level of expressed mRNA in the presence of chemical substance/The level of expressed mRNA in the absence of chemical substance (yeast gene YNL169C): 1.3
level of expressed mRNA in the presence/in the absence of chemical substance (yeast gene YNL192W): 2.8
The level of expressed mRNA in the presence of chemical substance/The level of expressed mRNA in the absence of chemical substance (yeast gene YNL231C): 4.0
The level of expressed mRNA in the presence of chemical substance/The level of expressed mRNA in the absence of chemical substance (yeast gene YNL322C): 1.0
The level of expressed mRNA in the presence of chemical substance/The level of expressed mRNA in the absence of chemical substance (yeast gene YNL331C): 1.3
The level of expressed mRNA in the presence of chemical substance/The level of expressed mRNA in the absence of chemical substance (yeast gene YNL332W): 1.0
The level of expressed mRNA in the presence of chemical substance/The level of expressed mRNA in the absence of chemical substance (yeast gene YNR019W): 2.0
The level of expressed mRNA in the presence of chemical substance/The level of expressed mRNA in the absence of chemical substance (yeast gene YNR033W): 1.1
The level of expressed mRNA in the presence of chemical substance/The level of expressed mRNA in the absence of chemical substance (yeast gene YNR059W): 2.2
The level of expressed mRNA in the presence of chemical substance/The level of expressed mRNA in the absence of chemical substance (yeast gene YOL058W): 0.8
level of expressed mRNA in the presence/in the absence of chemical substance (yeast gene YOL086C): 1.3
level of expressed mRNA in the presence/in the absence of chemical substance (yeast gene YOL108C): 2.7
level of expressed mRNA in the presence/in the absence of chemical substance (yeast gene YOL116W): 1.4
The level of expressed mRNA in the presence of chemical substance/The level of expressed mRNA in the absence of chemical substance (yeast gene YOL126C): 2.4
The level of expressed mRNA in the presence of chemical substance/The level of expressed mRNA in the absence of chemical substance (yeast gene YOL153C): 1.7
level of expressed mRNA in the presence/in the absence of chemical substance (yeast gene YOL156W): 0.9
The level of expressed mRNA in the presence of chemical substance/The level of expressed mRNA in the absence of chemical substance (yeast gene YOL165C): 1.0
level of expressed mRNA in the presence/in the absence of chemical substance (yeast gene YOR002W): 1.1
level of expressed mRNA in the presence/in the absence of chemical substance (yeast gene YOR085W): 0.9
The level of expressed mRNA in the presence of chemical substance/The level of expressed mRNA in the absence of chemical substance (yeast gene YOR099W): 2.3
level of expressed mRNA in the presence/in the absence of chemical substance (yeast gene YOR103C): 1.5
level of expressed mRNA in the presence/in the absence of chemical substance (yeast gene YOR108W): 1.1
level of expressed mRNA in the presence/in the absence of chemical substance (yeast gene YOR128C): 1.2
The level of expressed mRNA in the presence of chemical substance/The level of expressed mRNA in the absence of chemical substance (yeast gene YOR130C): 1.1
level of expressed mRNA in the presence/in the absence of chemical substance (yeast gene YOR142W): 1.0
The level of expressed mRNA in the presence of chemical substance/The level of expressed mRNA in the absence of chemical substance (yeast gene YOR153W): 3.1
level of expressed mRNA in the presence/in the absence of chemical substance (yeast gene YOR176W): 2.1
level of expressed mRNA in the presence/in the absence of chemical substance (yeast gene YOR178C): 1.5
level of expressed mRNA in the presence/in the absence of chemical substance (yeast gene YOR251C): 1.3
The level of expressed mRNA in the presence of chemical substance/The level of expressed mRNA in the absence of chemical substance (yeast gene YOR336W): 1.0
The level of expressed mRNA in the presence of chemical substance/The level of expressed mRNA in the absence of chemical substance (yeast gene YOR347C): 1.3
level of expressed mRNA in the presence/in the absence of chemical substance (yeast gene YOR348C): 0.9
The level of expressed mRNA in the presence of chemical substance/The level of expressed mRNA in the absence of chemical substance (yeast gene YPL017C): 0.8
level of expressed mRNA in the presence/in the absence of chemical substance (yeast gene YPL028W): 1.8
level of expressed mRNA in the presence/in the absence of chemical substance (yeast gene YPL057C): 2.0
level of expressed mRNA in the presence/in the absence of chemical substance (yeast gene YPL135W): 1.7
The level of expressed mRNA in the presence of chemical substance/The level of expressed mRNA in the absence of chemical substance (yeast gene YPL147W): 3.6
level of expressed mRNA in the presence/in the absence of chemical substance (yeast gene YPL148C): 1.1
The level of expressed mRNA in the presence of chemical substance/The level of expressed mRNA in the absence of chemical substance (yeast gene YPR026W): 1.3
level of expressed mRNA in the presence/in the absence of chemical substance (yeast gene YPR113W): 1.9
level of expressed mRNA in the presence/in the absence of chemical substance (yeast gene YPR165W): 2.7
The level of expressed mRNA in the presence of chemical substance/The level of expressed mRNA in the absence of chemical substance (yeast gene YPR167C): 1.4
level of expressed mRNA in the presence/in the absence of chemical substance (yeast gene YPR183W): 1.0
